Read-outs that look alike come from different tables or passages of the source.
Tests used:
[1] = patients with colorectal cancer, intravenous continuous infusion of a therapeutic dose; cited from earlier work
[2] = tested on: serum alanine aminotransferase (ALT); assay: Effect on alanine aminotransferase (ALT) serum levels in mouse; assay type: in vivo
Experimental: To verify whether the selective delivery of FUdR to hepatic cells accomplished by the conjugate causes liver damage, we compared the effect of free and conjugated FUdR on the serum alanine aminotransferase (ALT) (EC 2.6.1.2) level in mice (Table 3). An increase in the level of this enzyme is an index of hepatocyte damage. The drugs were administered according to the schedule used for the experiments on the growth of hepatic metastases.

[3] = tested on: hepatic metastases of murine colon carcinoma C-26 cells; assay: Effect of free and conjugated FUdR on liver metastases of C-26 cells in mouse; assay type: in vivo; conditions: for Increase of liver weight: saline 1.22 ± 0.25; for Total Liver DNA: saline 11.83 ± 1.75
Experimental: (§1) Female Balb/C mice 7-8 weeks old (weighing 16-19 g) and male Wistar rats (weighing 170-190 g) were used. They were obtained from Harlan Italy and were maintained in an animal facility at the Department of Experimental Pathology, Bologna, receiving humane care, in accordance with European Legislation. The protocols of the experiments were approved by the Ethical Committee of the University of Bologna. Animals. were fed a standard pellet diet ad lib.
Compounds were injected intravenously every other day, starting 24 h after inoculation of tumour cells. Four administrations were performed, and the animals were sacrificed one day after the injection.

[4] = [^3H]FUdR levels in inferior vena cava (IVC) and hepatic veins (HV) of rats intravenously injected with free or L-HSA conjugated [^3H]FUdR; assay type: in vivo; conditions: rat
Text: Two radioactive conjugates were synthesised: one labelled in the carrier (L-[^14C]HSA-FUdR) and one in the drug moiety (L-HSA-[^3H]FUdR). […] The conjugateradioactive in the drug moiety (three preparations) was obtained using [^3H]FUdR (Moravek).
as §1, with “They” for “Female Balb/C mice 7-8 weeks old (weighing 16-19 g) and male Wistar rats (weighing 170-190 g) were used. They”
Plasma levels of free [^3H]FUdR were measured by using the isotope dilution procedure and HPLC. In order to identify the elution time of [^3H]FUdR in HPLC chromatogram and to evaluate the recovery, 15 μg of unlabeled FUdR was added to each plasma sample (400 μl), kept cold in ice. Plasma proteins were removed by the addition of 30 μl trichloroacetic acid 80% and centrifugation at 2-4° C. After diethylether extraction to eliminate trichloroacetic acid, […] supernatant was chromatographed on a Spherisorb ODS2 equilibrated on 20 mM sodium tetraborate pH 7.5 and eluted with a linear gradient of methanol (0-30%). Radioactivity eluting at the position of FUdR marker was counted and the plasma concentration of [^3H]FUdR was calculated taking into account the recovery of the marker (measured by UV absorbance) and the specific activity (SA) of injected [^3H]FUdR. […] When radioactivity of FUdR peak was lower than 200 dpm, the plasma concentration of [^3H]FUdR was considered below a measurable level (BML). With a 90% recovery of FUdR marker, the lowest measurable plasma concentration was about 25 ng [^3H]FUdR/ml.
These concentrations are a measure of drug levels in systemic circulation and in liver blood, respectively.

[5] = Exp. 1, daily dose 5 μg/g i.v. every other day x4, NS

- concentration at 15 min ([4]; male, Wistar, plasma of hepatic vein blood, iv, i.v. 2.5 μg/g, 15 min, read-out: [^3H]FUdR level HV): 57.6 ± 9 ng/mL
- concentration at 7 min ([4]; male, Wistar, plasma of hepatic vein blood, iv, i.v. 10 μg/g, 7 min, read-out: [^3H]FUdR level HV): 385 ng/mL
- concentration at 15 min ([4]; male, Wistar, plasma of hepatic vein blood, iv, i.v. 10 μg/g, 15 min, read-out: [^3H]FUdR level HV): 203 ng/mL
- concentration at 30 min ([4]; male, Wistar, plasma of hepatic vein blood, iv, i.v. 10 μg/g, 30 min, read-out: [^3H]FUdR level HV): 77.5 ± 43.6 ng/mL
- concentration at 15 min ([4]; male, Wistar, plasma of hepatic vein blood, iv, i.v. free 1.2 μg/g, 15 min, read-out: [^3H]FUdR level HV): 40.9 ± 7.7 ng/mL
- concentration at 7 min ([4]; male, Wistar, plasma of inferior vena cava blood, iv, i.v. 0.15 μg/g, 7 min, read-out: [^3H]FUdR level IVC): 80.1 ± 4.2 ng/mL
- concentration at 15 min ([4]; male, Wistar, plasma of inferior vena cava blood, iv, i.v. 2.5 μg/g, 15 min, read-out: [^3H]FUdR level IVC): 404 ± 47.9 ng/mL
- concentration at 30 min ([4]; male, Wistar, plasma of inferior vena cava blood, iv, i.v. 2.5 μg/g, 30 min, read-out: [^3H]FUdR level IVC): 156 ± 51.9 ng/mL
- concentration at 45 min ([4]; male, Wistar, plasma of inferior vena cava blood, iv, i.v. 2.5 μg/g, 45 min, read-out: [^3H]FUdR level IVC): 25.5 ± 0.2 ng/mL
- concentration at 7 min ([4]; male, Wistar, plasma of inferior vena cava blood, iv, i.v. 10 μg/g, 7 min, read-out: [^3H]FUdR level IVC): 1570 ng/mL
- concentration at 15 min ([4]; male, Wistar, plasma of inferior vena cava blood, iv, i.v. 10 μg/g, 15 min, read-out: [^3H]FUdR level IVC): 1060 ng/mL
- concentration at 30 min ([4]; male, Wistar, plasma of inferior vena cava blood, iv, i.v. 10 μg/g, 30 min, read-out: [^3H]FUdR level IVC): 467 ± 228 ng/mL
- concentration at 15 min ([4]; male, Wistar, plasma of inferior vena cava blood, iv, i.v. free 1.2 μg/g, 15 min, read-out: [^3H]FUdR level IVC): 275.2 ± 0.7 ng/mL
- concentration at 30 min ([4]; male, Wistar, plasma of inferior vena cava blood, iv, i.v. free 1.2 μg/g, 30 min, read-out: [^3H]FUdR level IVC): 38.9 ± 5.8 ng/mL
- Levels in HV / Levels in IVC ([4]; i.v. 2.5 μg/g, 15 min): 0.15 ± 0.04
- Levels in HV / Levels in IVC ([4]; i.v. 2.5 μg/g, 30 min): 0.19
- [^3H]FUdR level HV ([4]; i.v. 2.5 μg/g, 45 min): BML (Below Measurable Level (<25 ng/ml))
- Levels in HV / Levels in IVC ([4]; i.v. 10 μg/g, 7 min): 0.24
- Levels in HV / Levels in IVC ([4]; i.v. 10 μg/g, 15 min): 0.19
- Levels in HV / Levels in IVC ([4]; i.v. 10 μg/g, 30 min): 0.16 ± 0.02
- Levels in HV / Levels in IVC ([4]; i.v. free 1.2 μg/g, 15 min): 0.15 ± 0.03
- [^3H]FUdR level HV ([4]; i.v. free 1.2 μg/g, 30 min): BML (Below Measurable Level (<25 ng/ml))
- [^3H]FUdR level HV ([4]; i.v. free 1.2 μg/g, 60 min): BML (Below Measurable Level (<25 ng/ml))
- [^3H]FUdR level IVC ([4]; i.v. free 1.2 μg/g, 60 min): BML (Below Measurable Level (<25 ng/ml))
SMILES: O=c1[nH]c(=O)n([C@H]2C[C@H](O)[C@@H](CO)O2)cc1F [Free FUdR, 5-fluoro-2′-deoxyuridine]
- Estimated blood concentration of the drug [1]: about 0.2 ng/ml
- Serum ALT levels ([2]; Exp 2, 50 μg/g, four i.v. injections on alternate days, saline 64.5 ± 15.0, p = 0.045): 114.8 ± 16.0 p = 0.045 U/I
- Effect on serum ALT level ([2]; dose 5 times higher than that active on the metastases): increase in ALT levels at the limit of statistical significance
- Increase of liver weight [3, 5]: 1.00 ± 0.17 g
- Total Liver DNA [3, 5]: 9.47 ± 1.06 mg
- Increase of liver weight ([3]; Exp. 1, daily dose 10 μg/g i.v. every other day x4, p = 0.070): 0.64 ± 0.15 g
- Total Liver DNA ([3]; Exp. 1, daily dose 10 μg/g i.v. every other day x4, p = 0.041): 7.32 ± 0.91 mg
- Daily dose that inhibited the tumour growth ([3]; i.v. every other day, four administrations): 10 µg/g
- [^3H]FUdR level HV ([4]; i.v. 0.15 μg/g, 7 min): BML^b) (Below Measurable Level (<25 ng/ml))

Reference: US20040044178A1, “Hepatotropic conjugates of antiblastic drugs accomplishing a loco-regional chemotherapy of liver micrometastases after adminstration by peripheral venous route” (priority 2001, published 2004)
